Type in all cases: physicochemical
The nature of series [1]: DTA / thermogravimetric analysis (weight loss). How it is done:
The necessary amounts were carefully weighed for completing ¾ parts of the 70-μl Al2O3 crucible provided with a perforated lid that was hermetically sealed. Then, the crucible was placed into the furnace and the experiment started. The samples were heated from […] at a rate of 5° C./min under a N2 stream, the flow rate being 80 mL/min. Mass loss rate was calculated in relation to baseline by horizontal tangent plot. […] The start of endothermic peak temperature occurred at 437.6° K, but the first recorded weight loss began at 449° K from DTA analysis. Polymorph II placed in a furnace at 423° K started decomposition after 2 hours.

A short description of series [2]: Determination of apparent density and compacted density (Stampf STAV 2003 volumeter). As to conditions: for Compacted density: weight/final volume after 2500 strokes; for Apparent density: weight/initial volume. How it is done:
The determination of apparent and compacted densities was carried out with a Stampf STAV 2003 volumeter equipped with a 100-mL glass volumetric flask.
• (i) The flask was filled with a volume between 50 and 100 mL of test sample. • (ii) The volume occupied before the test (mL) was recorded. • (iii) 2500 strokes were performed with the volumeter. • (iv) The volume occupied after the test (mL) was recorded. • (v) The amount of analyzed sample (g) was weighed.
• (i) Apparent density (g/mL)=weight/initial volume • (ii) Compacted density (g/mL)=weight/final volume

Series [3] can be described thus: Stability of polymorph II (humidity, temperature, polymorphic transition). As for the experimental part:
The start of endothermic peak temperature occurred at 437.6° K, but the first recorded weight loss began at 449° K from DTA analysis. Polymorph II placed in a furnace at 423° K started decomposition after 2 hours.

With `Clc1ccc([C@H](Cn2ccnc2)OCc2csc3c(Cl)cccc23)c(Cl)c1` [Polymorph II, arasertaconazole mononitrate], the “Temperature at which first recorded weight loss began” value in series [1] came to 449 ° K. The Compacted density in series [2] and in series [2] (listed as polymorph II) was 0.53 g/mL in each case. The Apparent density in series [2] and in series [2] (listed as polymorph II) was 0.39 g/mL in each case. Besides, the “Stability in 1-month test” value in series [3] (1-month test at ambient temperature or humidity) is recorded as “remained stable”. Further, the “Stability after 1 day” value in series [3] (1 day at 25° C./80 RH) is listed as “remained stable”. Besides, in series [3] (during 1-month test), the “Transition from II to I” value was “No transition from II to I was observed”. Moreover, the “Stability at high temperature compared with polymorph I” value in series [3] (high temperatures (higher than 80° C.)) is listed as “more stable at high temperature”. Moreover, the Stability against humidity entry in series [3] (humidity) is on record as “stable”. Also, the “Time to start of decomposition” value in series [3] (placed in a furnace at 423° K) stood at 2 h. Moreover, the Stability at temperature entry in series [3] (temperature below 423° K) is “stable”.

Turning to `Clc1ccc([C@H](Cn2ccnc2)OCc2csc3c(Cl)cccc23)c(Cl)c1` [Polymorph I, arasertaconazole mononitrate], the Compacted density in series [2] (listed as Polymorph 1) and in series [2] (listed as polymorph I) was 1.08 g/mL in each case. Further, the Apparent density in series [2] (listed as Polymorph 1) and in series [2] (listed as polymorph I) was 0.78 g/mL throughout.
